Test results: patent publication US20100234393A1, “USE OF A VASOPEPTIDASE INHIBITOR FOR THE TREATMENT OF PULMONARY ARTERIAL HYPERTENSION” (priority 2006, published 2010)

Columns and labels:
[1] = system: PAH model in rats receiving an injection of monocrotaline; assay: Long-term efficacy of fasidotril in the monocrotaline PAH model in rats; format: in vivo, rats of the Wistar type
Description: The long-term efficacy of fasidotril was studied on a recognised PAH model in rats receiving an injection of the toxic alkaloid, monocrotaline (Rosenberg and Rabinovitch, Am. J. Physiol., 1988, 255, 484). After a single injection of the toxin (60 mg/kg, s.c.), the pulmonary arterial endothelium is wounded and the animals develop pulmonary arterial smooth muscle hypertrophy with severe pulmonary hypertension and right ventricular hypertrophy.
A group of 50 rats of the Wistar type weighing approximately 300 g was used, of which 10 were used as controls while 40 received a dose of 60 mg/kg of monocrotaline s.c. The latter were divided into two groups of 20 animals: the first group was fed with a standard laboratory feed while the second group was fed with a feed containing fasidotril at a concentration such that the rats received a dose of approximately 200 mg/kg/day.

[2] = system: PAH model (monocrotaline, Wistar rats); conditions: literature: Schermuly et al., Amer. J. Resp. Crit. Care Med. 2004, 169, 39; cited from earlier work

Structure (SMILES) | slowing down of the rate of development of the disease ([1]; PAH model, treatment with fasidotril, conclusion from mortality and heart weight data) | mortality ([1]; after one month, monocrotaline 60 mg/kg s.c., fasidotril in feed approximately 200 mg/kg/day, "monocrotaline only" group 45%) [%] | increase in the weight of the right ventricle (right heart hypertrophy) ([1]; after one month, monocrotaline 60 mg/kg s.c., fasidotril in feed approximately 200 mg/kg/day, monocrotaline only +74%) | increase in the weight of the right auricle (right heart hypertrophy) ([1]; after one month, monocrotaline 60 mg/kg s.c., fasidotril in feed approximately 200 mg/kg/day, monocrotaline only +140%) | activity in the PAH model [2]
CC(=O)SC[C@@H](Cc1ccc2c(c1)OCO2)C(=O)N[C@@H](C)C(=O)OCc1ccccc1 [fasidotril, benzyl (S,S)-2-(2-acetylsulphanylmethyl-3-benzo[1,3]dioxol-5-ylpropionylamino)propionate] | approximately a half | 20 | +50% | +57% | –
CCCc1nn(C)c2c(=O)[nH]c(-c3cc(S(=O)(=O)N4CCN(C)CC4)ccc3OCC)nc12 [sildenafil] | – | – | – | – | active
